Data as given in patent US20260028326A1, “COMPOUND BASED ON ISOINDOLINE-SUBSTITUTED GLUTARIMIDE BACKBONE AND USE THEREOF” (GLUETACS THERAPEUTICS (SHANGHAI) CO., LTD., priority 2022, published 2026).

How the values were obtained:
IKZF3 protein = IKZF3 protein (Homo sapiens (Human), UniProt Q96SW2+Q9UKT9); assay: Western-blot assay of substrate protein degradation in hPBMC, IKZF3; format: cell-based; settings: hPBMC cells, compound 500 nM, 24 hours, Western blot
Experimental: (§1) After treating the cells with the compounds for 24 hours, the cells were collected and lysed using RIPA protein lysate containing phosphatase inhibitors. The lysate was then placed on ice for 30-60 minutes and centrifuged. The supernatant was aspirated as the extracted total cell protein. The protein concentration of the supernatant was determined using the conventional BCA (Bicinchoninic Acid) assay. The supernatant was then mixed with 4×SDS sample loading buffer, denatured at 95° C. for 5 minutes, and then subjected to SDS-PAGE electrophoresis on a polyacrylamide gel, followed by transfer to a nitrocellulose membrane (NC membrane). The membrane was blocked with blocking buffer at room temperature for 1-2 hours, and then antibody incubation and detection were carried out according to the antibody instructions provided by Cell Signaling Technology.
(§2) Half-Maximal Degradation Concentration value (the drug concentration required for degrading proteins by 50%, abbreviated as DC50) reads method: comparing the gray values of the Western blotting bands for the drug treatment with the gray values of the Western blotting band for the DMSO control, and reading the drug concentration range corresponding to the gray value of the Western blotting bands for the drug treatment which is equal to half of the gray value of the Western blotting band for the DMSO control.
(§3) DC50 value could also be calculated as follows: using software ImageJ to quantify the gray values of the Western blotting bands for the drug treatment, fitting the relationship curve between drug concentrations and gray values, and from the fitted curve, calculating the drug concentration corresponding to half of the gray value of the Western blotting band for the DMSO control.

GSPT1 protein = GSPT1 protein (Homo sapiens (Human), UniProt P15170+Q96SW2); assay: Western-blot assay of substrate protein degradation in hPBMC, GSPT1; format: cell-based; settings: hPBMC cells, compound 500 nM, 24 hours, Western blot
GSPT1 protein, sequence (P15170 whole entry): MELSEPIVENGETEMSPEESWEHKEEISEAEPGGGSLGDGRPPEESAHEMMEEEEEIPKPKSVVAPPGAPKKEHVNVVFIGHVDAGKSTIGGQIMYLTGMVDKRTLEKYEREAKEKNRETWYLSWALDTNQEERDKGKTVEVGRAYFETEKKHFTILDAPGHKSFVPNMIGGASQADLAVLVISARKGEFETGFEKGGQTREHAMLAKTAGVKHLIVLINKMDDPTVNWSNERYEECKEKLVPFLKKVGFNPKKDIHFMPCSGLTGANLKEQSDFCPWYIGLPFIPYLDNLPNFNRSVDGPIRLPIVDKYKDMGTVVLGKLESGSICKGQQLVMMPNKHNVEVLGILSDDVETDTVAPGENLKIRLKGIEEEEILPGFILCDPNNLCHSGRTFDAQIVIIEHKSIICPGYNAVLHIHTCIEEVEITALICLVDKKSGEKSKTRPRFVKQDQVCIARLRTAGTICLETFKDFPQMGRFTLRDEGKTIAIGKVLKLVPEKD
GSPT1 protein, sequence (Q96SW2 whole entry): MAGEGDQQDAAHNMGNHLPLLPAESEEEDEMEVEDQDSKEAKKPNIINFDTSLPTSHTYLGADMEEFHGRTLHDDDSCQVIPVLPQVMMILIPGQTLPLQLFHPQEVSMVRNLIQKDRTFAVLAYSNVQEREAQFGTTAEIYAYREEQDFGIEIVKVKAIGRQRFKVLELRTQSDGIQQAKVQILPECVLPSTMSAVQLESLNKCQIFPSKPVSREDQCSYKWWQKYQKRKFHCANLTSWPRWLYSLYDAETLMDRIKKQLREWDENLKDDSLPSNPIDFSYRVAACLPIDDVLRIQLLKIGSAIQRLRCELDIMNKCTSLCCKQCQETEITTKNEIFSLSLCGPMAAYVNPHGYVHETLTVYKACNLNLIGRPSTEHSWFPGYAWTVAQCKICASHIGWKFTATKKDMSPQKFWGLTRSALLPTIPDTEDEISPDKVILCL
GSPT1 protein, sequence (Q16531 whole entry partner): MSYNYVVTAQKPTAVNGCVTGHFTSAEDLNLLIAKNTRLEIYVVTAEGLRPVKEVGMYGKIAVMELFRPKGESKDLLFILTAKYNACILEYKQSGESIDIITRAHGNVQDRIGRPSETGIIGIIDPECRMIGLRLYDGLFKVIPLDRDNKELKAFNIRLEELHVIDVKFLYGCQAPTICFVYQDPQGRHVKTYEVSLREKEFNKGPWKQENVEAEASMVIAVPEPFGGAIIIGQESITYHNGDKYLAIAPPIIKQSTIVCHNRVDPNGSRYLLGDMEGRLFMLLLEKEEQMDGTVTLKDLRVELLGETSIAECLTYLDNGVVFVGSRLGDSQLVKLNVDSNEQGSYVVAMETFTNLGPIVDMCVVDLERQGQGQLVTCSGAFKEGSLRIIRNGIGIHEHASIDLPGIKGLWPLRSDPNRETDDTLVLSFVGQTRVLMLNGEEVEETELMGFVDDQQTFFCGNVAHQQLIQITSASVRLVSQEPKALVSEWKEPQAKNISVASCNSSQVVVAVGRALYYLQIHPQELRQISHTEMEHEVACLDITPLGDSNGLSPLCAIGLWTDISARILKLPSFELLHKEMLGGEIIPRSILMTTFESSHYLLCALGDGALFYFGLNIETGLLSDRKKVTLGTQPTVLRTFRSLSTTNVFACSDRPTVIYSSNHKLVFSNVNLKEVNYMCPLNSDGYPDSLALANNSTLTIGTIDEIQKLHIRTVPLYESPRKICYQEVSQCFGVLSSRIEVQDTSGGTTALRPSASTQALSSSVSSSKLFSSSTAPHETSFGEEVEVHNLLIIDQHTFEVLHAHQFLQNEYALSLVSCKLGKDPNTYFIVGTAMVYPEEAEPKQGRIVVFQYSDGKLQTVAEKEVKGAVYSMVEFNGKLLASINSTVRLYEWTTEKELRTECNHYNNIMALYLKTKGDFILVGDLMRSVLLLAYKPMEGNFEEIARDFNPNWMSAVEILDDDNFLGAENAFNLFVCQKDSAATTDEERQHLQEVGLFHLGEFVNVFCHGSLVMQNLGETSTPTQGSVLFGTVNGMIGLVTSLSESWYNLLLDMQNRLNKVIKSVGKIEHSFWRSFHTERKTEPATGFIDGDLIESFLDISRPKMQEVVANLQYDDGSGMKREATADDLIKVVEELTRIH
Experimental: as §1, §2, §3

IKZF1 protein = IKZF1 protein (Homo sapiens (Human), UniProt Q13422+Q96SW2); assay: Western-blot assay of substrate protein degradation in hPBMC, IKZF1; format: cell-based; settings: hPBMC cells, compound 500 nM, 24 hours, Western blot
IKZF1 protein, sequence (Q13422 whole entry): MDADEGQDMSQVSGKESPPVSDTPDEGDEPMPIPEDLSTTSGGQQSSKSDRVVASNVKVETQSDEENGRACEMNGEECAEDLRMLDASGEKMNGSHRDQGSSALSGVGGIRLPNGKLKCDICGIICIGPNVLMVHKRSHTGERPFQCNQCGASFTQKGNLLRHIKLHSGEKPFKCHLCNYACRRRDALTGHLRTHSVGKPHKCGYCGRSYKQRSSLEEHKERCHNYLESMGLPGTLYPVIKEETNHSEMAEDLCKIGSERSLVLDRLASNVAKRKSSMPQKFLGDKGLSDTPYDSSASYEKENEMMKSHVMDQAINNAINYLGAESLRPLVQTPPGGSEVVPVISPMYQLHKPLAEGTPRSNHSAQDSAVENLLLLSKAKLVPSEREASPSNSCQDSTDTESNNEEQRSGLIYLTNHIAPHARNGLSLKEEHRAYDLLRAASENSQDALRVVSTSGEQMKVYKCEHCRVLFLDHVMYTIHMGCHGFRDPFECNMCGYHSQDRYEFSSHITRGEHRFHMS
IKZF1 protein, sequence (Q96SW2 whole entry): as the sequence (Q96SW2 whole entry) above
IKZF1 protein, sequence (Q16531 whole entry partner): as the sequence (Q16531 whole entry partner) above
Experimental: as §1, §2, §3

[1] = target: human Cereblon WT GST-tagged protein (Homo sapiens (Human), UniProt Q96SW2); assay: CRBN-binding affinity, HTRF (CEREBLON BINDING kit)
human Cereblon WT GST-tagged protein, sequence (Q96SW2 whole entry): as the sequence (Q96SW2 whole entry) above
In short: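 GST-tagged human WT Cereblon incubated with compound, then Thalidomide-Re tracer and anti-GST Eu antibody added. Displacement read by HTRF, reported as CRBN binding inhibition rate against blank control wells without protein.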

IKZF3 protein, sequence (Q9UKT9 whole entry): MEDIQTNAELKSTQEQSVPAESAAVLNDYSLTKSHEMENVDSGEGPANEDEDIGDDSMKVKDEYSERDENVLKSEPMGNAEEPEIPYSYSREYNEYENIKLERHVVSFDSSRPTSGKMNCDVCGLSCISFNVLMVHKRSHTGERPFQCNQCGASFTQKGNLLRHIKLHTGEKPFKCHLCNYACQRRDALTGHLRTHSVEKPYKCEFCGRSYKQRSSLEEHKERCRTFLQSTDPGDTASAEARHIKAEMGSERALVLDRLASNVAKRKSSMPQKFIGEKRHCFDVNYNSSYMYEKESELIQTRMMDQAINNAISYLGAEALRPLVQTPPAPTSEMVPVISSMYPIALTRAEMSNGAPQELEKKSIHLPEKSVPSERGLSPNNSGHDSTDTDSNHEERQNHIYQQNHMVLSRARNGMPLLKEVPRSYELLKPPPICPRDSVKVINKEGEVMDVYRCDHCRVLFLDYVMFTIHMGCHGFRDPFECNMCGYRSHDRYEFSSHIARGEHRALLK
IKZF3 protein, sequence (Q96SW2 whole entry): as the sequence (Q96SW2 whole entry) above
IKZF3 protein, sequence (Q16531 whole entry partner): as the sequence (Q16531 whole entry partner) above

Row | SMILES | IC50 [1] | residual substrate protein level, IKZF3 (IKZF3 protein) | residual substrate protein level, GSPT1 (GSPT1 protein) | residual substrate protein level, IKZF1 (IKZF1 protein)
1 | CC1(C)CCC(CN2CCN(Cc3ccc4c(c3)C(=O)N(C3CCC(=O)NC3=O)C4=O)C(C(F)(F)F)C2)=C(c2ccc(Cl)cc2)C1 (stereo not shown) [GT-06103, 5-((4-((4′-chloro-5,5-dimethyl-3,4,5,6-tetrahydro-[1,1′-biphenyl]-2-yl)methyl)-2-(trifluoromethyl)piperazin-1-yl)methyl)-2-(2,6-dioxopiperidin-3-yl)isoindoline-1,3-dione] |  | B (B represents a residual substrate protein level of >50%) | A (A represents a residual substrate protein level of <50%) | B (B represents a residual substrate protein level of >50%)
2 | O=C1CCC(N2C(=O)c3ccc(CN4CCN(CC5=C(c6ccc(F)cc6)CCCC5)CC4)cc3C2=O)C(=O)N1 (stereo not shown) [GT-05464, 2-(2,6-dioxopiperidin-3-yl)-5-((4-((4′-fluoro-3,4,5,6-tetrahydro-[1,1′-biphenyl]-2-yl)methyl)piperazin-1-yl)methyl)isoindoline-1,3-dione] |  | A (A represents a residual substrate protein level of <50%) | B (B represents a residual substrate protein level of >50%) | B (B represents a residual substrate protein level of >50%)
3 | CC1(C)CCC(CN2CC3CCC(C2)N3c2ccc3c(c2)CN(C2CCC(=O)NC2=O)C3=O)=C(c2ccc(Cl)cc2)C1 (stereo not shown) [GT-05430, 3-(5-(3-((4′-chloro-5,5-dimethyl-3,4,5,6-tetrahydro-[1,1′-biphenyl]-2-yl)methyl)-3,8-diazabicyclo[3.2.1]octan-8-yl)-1-oxoisoindolin-2-yl)piperidine-2,6-dione] |  | B (B represents a residual substrate protein level of >50%) | A (A represents a residual substrate protein level of <50%) | B (B represents a residual substrate protein level of >50%)
4 | CC1(C)CCC(CN2CC3CC2CN3Cc2ccc3c(c2)C(=O)N(C2CCC(=O)NC2=O)C3=O)=C(c2ccc(Cl)cc2)C1 (stereo not shown) [GT-05533, 5-((5-((4′-chloro-5,5-dimethyl-3,4,5,6-tetrahydro-[1,1′-biphenyl]-2-yl)methyl)-2,5-diazabicyclo[2.2.1]heptan-2-yl)methyl)-2-(2,6-dioxopiperidin-3-yl)isoindoline-1,3-dione] |  | A (A represents a residual substrate protein level of <50%) | A (A represents a residual substrate protein level of <50%) | A (A represents a residual substrate protein level of <50%)
5 | CC1(C)CCC(CN2CC3CCC(C2)N3Cc2ccc3c(c2)C(=O)N(C2CCC(=O)NC2=O)C3=O)=C(c2ccc(Cl)cc2)C1 (stereo not shown) [GT-04719, 5-((3-((4′-chloro-5,5-dimethyl-3,4,5,6-tetrahydro-[1,1′-biphenyl]-2-yl)methyl)-3,8-diazabicyclo[3.2.1]octan-8-yl)methyl)-2-(2,6-dioxopiperidin-3-yl)isoindoline-1,3-dione] |  | B (B represents a residual substrate protein level of >50%) | A (A represents a residual substrate protein level of <50%) | B (B represents a residual substrate protein level of >50%)
6 | CC1(C)CCC(CN2CC3(C2)CN(Cc2ccc4c(c2)C(=O)N(C2CCC(=O)NC2=O)C4=O)C3)=C(c2ccc(Cl)cc2)C1 (stereo not shown) [GT-05675, 5-((6-((4′-chloro-5,5-dimethyl-3,4,5,6-tetrahydro-[1,1′-biphenyl]-2-yl)methyl)-2,6-diazaspiro[3.3]heptan-2-yl)methyl)-2-(2,6-dioxopiperidin-3-yl)isoindoline-1,3-dione] |  | B (B represents a residual substrate protein level of >50%) | B (B represents a residual substrate protein level of >50%) | B (B represents a residual substrate protein level of >50%)
7 | CC1(C)CCC(C(=O)N2C3CCC2CN(c2ccc4c(c2)CN(C2CCC(=O)NC2=O)C4=O)C3)=C(c2ccc(F)cc2)C1 (stereo not shown) [GT-05491, 3-(5-(8-(4′-fluoro-5,5-dimethyl-3,4,5,6-tetrahydro-[1,1′-biphenyl]-2-carbonyl)-3,8-diazabicyclo[3.2.1]octan-3-yl)-1-oxoisoindolin-2-yl)piperidine-2,6-dione] | 970 nM |  |  | 
8 | CC1(C)CCC(C(=O)N2C3CC2CN(Cc2ccc4c(c2)CN(C2CCC(=O)NC2=O)C4=O)C3)=C(c2ccc(Cl)cc2)C1 (stereo not shown) [GT-05660, 3-(5-((6-(4′-chloro-5,5-dimethyl-3,4,5,6-tetrahydro-[1,1′-biphenyl]-2-carbonyl)-3,6-diazabicyclo[3.1.1]heptan-3-yl)methyl)-1-oxoisoindolin-2-yl)piperidine-2,6-dione] | 1040 nM |  |  | 
9 | CC1(C)CCC(CN2CC3CCC2CN3c2ccc3c(c2)C(=O)N(C2CCC(=O)NC2=O)C3=O)=C(c2ccc(Cl)cc2)C1 (stereo not shown) [GT-05379, 5-(5-((4′-chloro-5,5-dimethyl-3,4,5,6-tetrahydro-[1,1′-biphenyl]-2-yl)methyl)-2,5-diazabicyclo[2.2.2]octan-2-yl)-2-(2,6-dioxopiperidin-3-yl)isoindoline-1,3-dione] | 110 nM |  |  | 
10 | O=C1CCC(N2Cc3cc(C(=O)N4CC5CC(C4)N5Cc4ccccc4-c4ccc(Cl)cc4)ccc3C2=O)C(=O)N1 (stereo not shown) [GT-05705, 3-(5-(6-((4′-chloro-[1,1′-biphenyl]-2-yl)methyl)-3,6-diazabicyclo[3.1.1]heptane-3-carbonyl)-1-oxoisoindolin-2-yl)piperidine-2,6-dione] | 880 nM |  |  | 
11 | CC1(C)CCC(CN2CCC(Nc3ccc4c(c3)CN(C3CCC(=O)NC3=O)C4=O)CC2)=C(c2ccc(F)cc2)C1 (stereo not shown) [GT-05785, 3-(5-((1-((4′-fluoro-5,5-dimethyl-3,4,5,6-tetrahydro-[1,1′-biphenyl]-2-yl)methyl)piperidin-4-yl)amino)-1-oxoisoindolin-2-yl)piperidine-2,6-dione] | 1250 nM |  |  | 

The next lines start with results.

Row | IC50 [1] | SMILES | residual substrate protein level, IKZF3 (IKZF3 protein) | residual substrate protein level, GSPT1 (GSPT1 protein) | residual substrate protein level, IKZF1 (IKZF1 protein)
12 | 600 nM | CC1(C)CCC(CN2CC3CC2CN3C(=O)c2ccc3c(c2)CN(C2CCC(=O)NC2=O)C3=O)=C(c2ccc(Cl)cc2)C1 (stereo not shown) [GT-05541, 3-(5-(5-((4′-chloro-5,5-dimethyl-3,4,5,6-tetrahydro-[1,1′-biphenyl]-2-yl)methyl)-2,5-diazabicyclo[2.2.1]heptane-2-carbonyl)-1-oxoisoindolin-2-yl)piperidine-2,6-dione] |  |  | 
13 | 1150 nM | O=C1CCC(N2Cc3cc(CCCN4CCN(Cc5ccccc5-c5ccc(Cl)cc5)CC4)ccc3C2=O)C(=O)N1 (stereo not shown) [GT-05893, 3-(5-(3-(4-((4′-chloro-[1,1′-biphenyl]-2-yl)methyl)piperazin-1-yl)propyl)-1-oxoisoindolin-2-yl)piperidine-2,6-dione] |  |  | 
14 | 1930 nM | CC1(C)CCC(C(=O)N2CCN(Cc3cccc4c3CN(C3CCC(=O)NC3=O)C4=O)CC2)=C(c2ccc(Cl)cc2)C1 (stereo not shown) [GT-05528, 3-(4-((4-(4′-chloro-5,5-dimethyl-3,4,5,6-tetrahydro-[1,1′-biphenyl]-2-carbonyl)piperazin-1-yl)methyl)-1-oxoisoindolin-2-yl)piperidine-2,6-dione] |  |  | 
15 | 1750 nM | O=C1CCC(N2C(=O)c3ccc(C(=O)N4CCN(Cc5cccc(-c6ccc(Cl)cc6)c5)CC4)cc3C2=O)C(=O)N1 (stereo not shown) [GT-05631, 5-(4-((4′-chloro-[1,1′-biphenyl]-3-yl)methyl)piperazine-1-carbonyl)-2-(2,6-dioxopiperidin-3-yl)isoindoline-1,3-dione] |  |  | 
16 | 550 nM | O=C1CCC(N2Cc3cc(CN4CC5(C4)CN(C(=O)c4ccccc4-c4ccc(Cl)cc4)C5)ccc3C2=O)C(=O)N1 (stereo not shown) [GT-05708, 3-(5-((6-(4′-chloro-[1,1′-biphenyl]-2-carbonyl)-2,6-diazaspiro[3.3]heptan-2-yl)methyl)-1-oxoisoindolin-2-yl)piperidine-2,6-dione] |  |  | 
17 | 1650 nM | O=C1CCC(N2C(=O)c3ccc(CN4CCN(Cc5ccncc5-c5ccc(Cl)cc5)CC4)cc3C2=O)C(=O)N1 (stereo not shown) [GT-05731, 5-((4-((3-(4-chlorophenyl)pyridin-4-yl)methyl)piperazin-1-yl)methyl)-2-(2,6-dioxopiperidin-3-yl)isoindoline-1,3-dione] |  |  | 
18 | 710 nM | O=C1CCC(N2Cc3cc(CN4CC5CC4CN5Cc4ccccc4-c4ccc(Cl)cc4)ccc3C2=O)C(=O)N1 (stereo not shown) [GT-05707, 3-(5-((5-((4′-chloro-[1,1′-biphenyl]-2-yl)methyl)-2,5-diazabicyclo[2.2.1]heptan-2-yl)methyl)-1-oxoisoindolin-2-yl)piperidine-2,6-dione] |  |  | 
19 | 1070 nM | CC1(C)CCC(C(=O)N2CCC(Nc3ccc4c(c3)CN(C3CCC(=O)NC3=O)C4=O)CC2)=C(c2ccc(F)cc2)C1 (stereo not shown) [GT-05786, 3-(5-((1-(4′-fluoro-5,5-dimethyl-3,4,5,6-tetrahydro-[1,1′-biphenyl]-2-carbonyl)piperidin-4-yl)amino)-1-oxoisoindolin-2-yl)piperidine-2,6-dione] |  |  | 
